Measurements taken from PMC9468151, “Identification of a binding site on soluble RANKL that can be targeted to inhibit soluble RANK-RANKL interactions and treat osteoporosis” (Nature Communications, 2022).
Values joined by “and” are separate entries in the source; they are usually repeats but may differ in a detail not shown here. Identical values can stand only once. Like-named read-outs stand apart in the source and are kept apart here.

Key:
[1] = system: human sRANKL and human OPG; experiment: In vitro pull-down assay of sRANKL binding to OPG
Protocol: To evaluate whether S3-15 affects the binding of sRANKL or mRANKL to OPG, we did the pull-down assay.
sRANKL-OPG: 200 ng human sRANKL with his-sumo tag was incubated with Ni gel at 4 °C for 10 min. Then the Ni gel was washed with PBS for 3 times. 500 μL PBS that contains 100 ng Fc tag human OPG. Then S3-15 was treated in different concentration (0, 10, 1 and 0.3 μM). The mixtures were incubating at 4 °C for 30 min. Washed with PBS for 3 times. 500 μL 1% Triton X-100 in PBS was then added at 4 °C. The concentration of OPG was tested by OPG ELISA kit (USCN, China).

[2] = system: WT sRANKL induced osteoclast formation with H226A/W194A sRANKL; experiment: Rescue experiment: WT sRANKL combined with W194A or H226A sRANKL; type: cell-based, mouse; parameters: osteoclast formation (fig. S4b): unit not given here; settings: S3-15 10 μM; for OC numbers: 100 ng/mL WT sRANKL
Protocol: For the osteoclast formation induced by WT and Q238A sRANKL experiments, BMMs were seeded in 96-well plate in density of 6 × 10^3 cell/ well with α-MEM completed medium containing 10 ng/mL M-CSF for 24 h. Then the cells were treated with 0 μM, 0.3 μM, 3 μM and 10 μM and stimulated with 100 ng/mLWT sRANKL or Q238A sRANKL respectively. For the osteoclast formation induced by WT, W194A, and H226A sRANKL experiments, cells were stimulated with 100 ng/mL WT sRANKL combined W194A, H226A sRANKL in different concentrations (50 ng/mL, 200 ng/mL, and 400 ng/mL) with or without 10 μM S3-15. After 5 days, osteoclasts were formed, and applied TRAP-staining as described above. TRAP-positive multinucleated cells with > 3 nuclei were scored as osteoclasts.

[3] = biological target: T1, human mRANKL and human OPG (Homo sapiens, UniProt O14788); experiment: mRANKL-OPG binding, HEK 293T cells with full length human RANKL; type: cell-based
T1 construct: HEK 293 T cells that transfer full length mouse RANKL or human RANKL; expressed in transfected cells; host or cells: HEK293T
T1 sequence (O14788 whole entry): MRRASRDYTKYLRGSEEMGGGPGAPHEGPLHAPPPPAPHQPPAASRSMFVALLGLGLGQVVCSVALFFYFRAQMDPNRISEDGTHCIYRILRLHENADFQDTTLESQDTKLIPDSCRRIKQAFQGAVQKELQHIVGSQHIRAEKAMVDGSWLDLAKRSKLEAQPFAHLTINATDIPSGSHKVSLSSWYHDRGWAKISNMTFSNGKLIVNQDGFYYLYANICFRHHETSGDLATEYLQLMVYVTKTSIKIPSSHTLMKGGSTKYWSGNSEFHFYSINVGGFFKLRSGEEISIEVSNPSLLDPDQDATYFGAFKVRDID
Protocol: mRANKL-OPG: MC3T3-E1 cells were differentiated by osteoblast differentiation medium (Pythonbio, China) for 2 days. Then cells were exposed to 1 M NaCl for 5 minutes to remove endogenous OPG, washed once in PBS, and fixed with 70% ethanol for 5 minutes at 4 °C. Fixed cells were wash once by PBS and then exposed to PBS that containing 100 ng mouse OPG (Sino, China) or 100 ng mouse OPG with 1 μM S3-15 and incubated for an additional 30 min at 4 °C. Cell layers were washed 2 times with PBS and lysed with 1% triton in PBS. The concentration of OPG in cell lysates were measured with an OPG ELISA kit (USCN, China). Similar proceed were performed using HEK 293 T cells that transfer full length mouse RANKL or human RANKL.

CC(=O)/C(=N\Nc1ccccc1C(=O)O)C(=O)Nc1ccccn1 [S3-15]
sRANKL-OPG binding signal (fig. S4m) [1]: 0.6462 and 0.65 and 0.761
sRANKL and OPG binding ([1]; 0.3 μM): cannot affects
sRANKL-OPG binding signal (fig. S4m) ([1]; 0.3): 0.7746 and 0.9001 and 1.2775
sRANKL and OPG binding ([1]; 10 and 1 μM): significantly suppressed
OC numbers ([2]; H226A RANKL 0 ng/mL): 36 and 29
OC numbers ([2]; H226A RANKL 50 ng/mL): 173 and 156 and 170
OC numbers ([2]; H226A RANKL 200 ng/mL): 113 and 121 and 125
osteoclast formation (fig. S4b) ([2]; W194A RANKL 0 ng/mL): 34 and 49 and 27
osteoclast formation (fig. S4b) ([2]; W194A RANKL 50 ng/mL): 147 and 144 and 140
osteoclast formation (fig. S4b) ([2]; W194A RANKL 200 ng/mL): 145 and 199 and 158
osteoclast formation (fig. S4b) ([2]; W194A RANKL 400 ng/mL): 119 and 118 and 97
human mRANKL and human OPG binding ([3]; 1 μM): no effects
mRANKL-OPG binding signal (fig. S4p) ([3]; OPG+S3-15): 0.1995 and 0.1932 and 0.1954
